{"source": "patent US20250129344A1", "about": "“MODIFIED GLUTAMATE DEHYDROGENASE AND APPLICATION THEREOF” (Hunan Lier Biotech Co., Ltd., priority 2021, published 2025)", "experiment_in_all_cases": "Dynamic properties (Michaelis-Menten) of LsGluDH mutant, PPO reductive amination", "format_in_all_cases": "biochemical", "conditions_in_all_cases": "PPO 5-100 mM, NADPH 0.15 mM, NH4Cl 50 mM, PBS pH 7.5, 30° C., diluted crude enzyme, 340 nm", "key": {"[1]": {"molecular_target": "T1, Lysinibacillus sphaericus glutamate dehydrogenase (LsGluDH, SEQ ID NO: 2) variant A175G-V173G-A182R, SEQ ID NO: 37 (Lysinibacillus pinottii, UniProt A0ABT2DNY0, A175G/A182R/V173G)", "T1 sequence (A0ABT2DNY0 1-457 V173G/A175G/A182R)": "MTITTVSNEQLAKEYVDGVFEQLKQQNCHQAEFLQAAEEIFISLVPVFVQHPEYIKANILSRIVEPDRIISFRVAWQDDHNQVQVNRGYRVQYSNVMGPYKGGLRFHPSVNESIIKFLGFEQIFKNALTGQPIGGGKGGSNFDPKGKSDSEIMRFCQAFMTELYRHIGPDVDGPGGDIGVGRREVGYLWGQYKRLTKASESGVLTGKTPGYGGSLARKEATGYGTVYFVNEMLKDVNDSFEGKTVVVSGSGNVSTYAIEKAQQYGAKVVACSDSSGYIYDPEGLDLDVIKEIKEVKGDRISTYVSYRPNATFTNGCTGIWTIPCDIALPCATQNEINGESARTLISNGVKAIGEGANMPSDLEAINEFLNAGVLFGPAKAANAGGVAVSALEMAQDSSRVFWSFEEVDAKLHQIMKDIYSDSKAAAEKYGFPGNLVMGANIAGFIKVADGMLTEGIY", "procedure": "(§1) A plurality of reaction systems (200 μL) comprising PBS of 100 mM pH 7.5 (pH was adjusted with aqueous ammonia solution), NADPH (reductive) of 0.15 mM, NH4Cl of 50 mM, diluted (500 folds) crude enzyme solution of 10% volume and the substrate PPO at various concentrations (5-100 mM) were formulated on a 96-well plate. The intensity of the UV absorption at 340 nm was detected at 30° C., and the rate of change in absorption over time (mA/min) was recorded. The obtained parameters were plugged into Michaelis-Menten equation, in which the reaction velocity was calculated with the rate of change in absorption.\n(§2) The mutants were prepared with the coding nucleic acid of LsGluDH (SEQ ID NO: 2) as the template, and the enzyme activities and the dynamic parameters Vmax and Km were measured, according to the method of Example 1. The resulted mutants and the enzyme activities and the dynamic parameters thereof are shown in Table 2, and the relative enzyme activity means the percentage of the enzyme activity of the mutant to the enzyme activity of the mutant of SEQ ID NO: 31."}, "[2]": {"molecular_target": "T2, Lysinibacillus sphaericus glutamate dehydrogenase (LsGluDH, SEQ ID NO: 2) variant A175G-I133V-V173S-A182R, SEQ ID NO: 38 (Lysinibacillus pinottii, UniProt A0ABT2DNY0, A175G/A182R/I133V/V173S)", "T2 sequence (A0ABT2DNY0 1-457 A175G/A182R/I133V/V173S)": "T1 sequence (A0ABT2DNY0 1-457 V173G/A175G/A182R) with I133V, G173S", "procedure": "as §1, §2"}, "[3]": {"molecular_target": "T3, Lysinibacillus sphaericus glutamate dehydrogenase (LsGluDH, SEQ ID NO: 2) variant A175G-A182R, SEQ ID NO: 36 (Lysinibacillus pinottii, UniProt A0ABT2DNY0, A175G/A182R)", "T3 sequence (A0ABT2DNY0 1-457 A175G/A182R)": "T1 sequence (A0ABT2DNY0 1-457 V173G/A175G/A182R) with G173V", "procedure": "as §1, §2"}, "[4]": {"molecular_target": "T4, Lysinibacillus sphaericus glutamate dehydrogenase (LsGluDH, SEQ ID NO: 2) variant A175G-P132L, SEQ ID NO: 32 (Lysinibacillus pinottii, UniProt A0ABT2DNY0, A175G/P132L)", "T4 sequence (A0ABT2DNY0 1-457 P132L/A175G)": "T1 sequence (A0ABT2DNY0 1-457 V173G/A175G/A182R) with P132L, G173V, R182A", "procedure": "as §1, §2"}}, "note": "Where a chain is given by its changes, count along the chain named.", "data": [{"smiles": "CP(=O)(O)CCC(=O)C(=O)O", "note": "[PPO, 2-carbonyl-4-(hydroxymethylphosphono) butyric acid]", "values": [{"measurement": "Km", "setting": "[1]", "result": 31, "unit": "mM"}, {"measurement": "Vmax", "setting": "[1]", "result": 58, "unit": "mA/min"}, {"measurement": "Km", "setting": "[2]", "result": 26, "unit": "mM"}, {"measurement": "Vmax", "setting": "[2]", "result": 38, "unit": "mA/min"}, {"measurement": "Km", "setting": "[3]", "result": 38, "unit": "mM"}, {"measurement": "Vmax", "setting": "[3]", "result": 46, "unit": "mA/min"}, {"measurement": "Km", "setting": "[4]", "result": 35, "unit": "mM"}, {"measurement": "Vmax", "setting": "[4]", "result": 45, "unit": "mA/min"}]}]}
